In patent publication US5708013A, “Pyridine derivative and therapeutic agent for ulcer comprising the same” (priority 1987, dated 1998):

How the values were obtained:
H^+ --K^+ ATPase = biological target: T1, H^+ --K^+ ATPase (Sus scrofa, UniProt P19156); assay: H+-K+ ATPase activity inhibition; assay type: biochemical; details: pig gastric fundus gland H+-K+ ATPase; pH 7.40, 37° C., 30 min incubation; compound dissolved in methanol; read-out: inhibitory effect on H+-K+ ATPase activity, IC50
T1 construct: prepared from a gland portion of the gastric fundus of the gastiric mucosa of a fresh pig; from tissue; host or cells: gland portion of the gastric fundus mucosa, fresh pig
T1 sequence (P19156 2-1034 limits assumed): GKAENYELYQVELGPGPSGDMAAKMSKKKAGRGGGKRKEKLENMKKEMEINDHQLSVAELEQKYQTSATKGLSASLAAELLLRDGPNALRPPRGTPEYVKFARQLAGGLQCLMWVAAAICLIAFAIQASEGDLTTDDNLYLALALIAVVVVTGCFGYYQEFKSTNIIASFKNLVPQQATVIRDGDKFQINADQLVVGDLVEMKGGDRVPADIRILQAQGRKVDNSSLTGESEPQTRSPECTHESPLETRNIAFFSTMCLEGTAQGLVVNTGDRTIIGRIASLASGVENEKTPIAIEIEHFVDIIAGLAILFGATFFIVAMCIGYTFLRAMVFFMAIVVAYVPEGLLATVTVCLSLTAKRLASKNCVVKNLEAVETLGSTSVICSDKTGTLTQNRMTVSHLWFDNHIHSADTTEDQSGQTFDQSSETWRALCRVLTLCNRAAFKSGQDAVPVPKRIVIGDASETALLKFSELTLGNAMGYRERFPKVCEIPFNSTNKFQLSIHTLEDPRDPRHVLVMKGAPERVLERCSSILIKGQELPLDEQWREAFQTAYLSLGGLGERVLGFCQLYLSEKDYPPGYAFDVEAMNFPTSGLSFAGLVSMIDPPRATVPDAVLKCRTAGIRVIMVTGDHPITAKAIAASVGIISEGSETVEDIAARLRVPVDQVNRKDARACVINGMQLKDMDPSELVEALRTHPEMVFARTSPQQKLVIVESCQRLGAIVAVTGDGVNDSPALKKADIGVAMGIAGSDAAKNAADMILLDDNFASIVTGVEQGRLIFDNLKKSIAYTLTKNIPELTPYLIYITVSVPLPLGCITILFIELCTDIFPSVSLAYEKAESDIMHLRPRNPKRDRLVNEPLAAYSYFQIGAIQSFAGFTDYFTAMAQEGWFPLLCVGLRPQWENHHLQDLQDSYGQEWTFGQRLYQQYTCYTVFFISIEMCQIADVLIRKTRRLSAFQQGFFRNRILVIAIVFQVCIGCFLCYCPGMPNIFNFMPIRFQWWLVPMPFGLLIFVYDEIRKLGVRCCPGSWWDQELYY
T1 sequence (P18434 whole entry partner): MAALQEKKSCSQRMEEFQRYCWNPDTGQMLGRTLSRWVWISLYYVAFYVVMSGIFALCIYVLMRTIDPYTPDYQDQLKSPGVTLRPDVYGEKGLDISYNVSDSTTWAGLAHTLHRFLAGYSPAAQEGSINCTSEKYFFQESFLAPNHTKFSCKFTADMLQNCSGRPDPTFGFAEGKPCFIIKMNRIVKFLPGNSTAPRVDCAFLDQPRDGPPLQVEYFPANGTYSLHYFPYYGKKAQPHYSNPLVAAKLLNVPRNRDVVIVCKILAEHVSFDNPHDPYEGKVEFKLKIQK
Protocol: H^+ --K^+ ATPase activity inhibition
(1) Preparation of H^+ --K^+ ATPase:
H^+ --K^+ ATPase was prepared from a gland portion of the gastric fundus of the gastiric mucosa of a fresh pig by the modification of a method of Saccomani et al., Biochem. and Biophys.
(2) Determination of H^+ --K^+ ATPase activity:
The compound of the present invention was incubated in various concentrations together with H^+ --K^+ ATPase and 10 μg/ml of protein in 40 mM of Tris-HCl having a pH value of 7.40 at 37° C. for 30 min. 15 mM of KCl was added thereto. 10 min after the addition, an ATPase reaction was initiated by addition of 3 mM of MgCl2 and ATP. 10 min after the initiation of the reaction, the amount of the released inorganic phosphoric acid was measured according to the method of Yoda and Hokin, Biochem. Biophys.
The test compound was dissolved in methanol prior to use.
The inhibitory effect was determined as follows. The measured value of the test compound was subtracted from the measured value of the control group to determine the difference in the measured values therebetween. The inhibitory effect was calculated as the percentage of the difference relative to the measured value of the control group. In the Table, the inhibitory effect was expressed in terms of IC50.

[1] = reported, prior art; cited from earlier work

IC50 (H^+ --K^+ ATPase) [nM] | SMILES | side effects [1]
3000 | CCCCOCCOc1ccnc(C[S+]([O-])c2nc3cc(OC)ccc3[nH]2)c1C (centres unmarked) [No. 5] | –
1100 | CCCCOCCOc1ccnc(C[S+]([O-])c2nc3cc(C(F)(F)F)ccc3[nH]2)c1C (centres unmarked) [No. 3] | –
1800 | CCCCOCCOc1ccnc(C[S+]([O-])c2nc3ccccc3[nH]2)c1C (centres unmarked) | –
1700 | COCCOc1ccnc(C[S+]([O-])c2nc3cc(C(F)(F)F)ccc3[nH]2)c1C (centres unmarked) [No. 11] | –
1800 | CCCCOCCOc1ccnc(C[S+]([O-])c2nc3cc(Cl)ccc3[nH]2)c1C (centres unmarked) [No. 2] | –

Second part, the compound before the results:

SMILES | IC50 (H^+ --K^+ ATPase) [nM] | side effects [1]
CCOCCOc1ccnc(C[S+]([O-])c2nc3cc(OC)ccc3[nH]2)c1C (centres unmarked) [No. 9] | 3400 | –
COCCOc1ccnc(C[S+]([O-])c2nc3cc(OC)ccc3[nH]2)c1C (centres unmarked) [No. 12] | 5600 | –
CCCCOCCOc1ccnc(C[S+]([O-])c2nc3cc(C)c(C)cc3[nH]2)c1C (centres unmarked) [No. 4] | 2200 | –
COCCOc1ccnc(C[S+]([O-])c2nc3ccccc3[nH]2)c1C (centres unmarked) [No. 10] | 3300 | –
CN/C(=N/CCSCc1nc[nH]c1C)NC#N [cimetidine] | – | antiandrogenic action or a metabolic enzymatic activity inhibitory action upon liver
CCOCCOc1ccnc(C[S+]([O-])c2nc3ccccc3[nH]2)c1C (centres unmarked) [No. 6] | 2800 | –
